{
  "source": "ChEMBL document CHEMBL1201862",
  "about": "“PubChem BioAssay data set” (2004)",
  "key": {"Beta-arrestin-1": {"molecular_target": "Beta-arrestin-1 (Homo sapiens, UniProt P49407)", "sequence (P49407 whole entry)": "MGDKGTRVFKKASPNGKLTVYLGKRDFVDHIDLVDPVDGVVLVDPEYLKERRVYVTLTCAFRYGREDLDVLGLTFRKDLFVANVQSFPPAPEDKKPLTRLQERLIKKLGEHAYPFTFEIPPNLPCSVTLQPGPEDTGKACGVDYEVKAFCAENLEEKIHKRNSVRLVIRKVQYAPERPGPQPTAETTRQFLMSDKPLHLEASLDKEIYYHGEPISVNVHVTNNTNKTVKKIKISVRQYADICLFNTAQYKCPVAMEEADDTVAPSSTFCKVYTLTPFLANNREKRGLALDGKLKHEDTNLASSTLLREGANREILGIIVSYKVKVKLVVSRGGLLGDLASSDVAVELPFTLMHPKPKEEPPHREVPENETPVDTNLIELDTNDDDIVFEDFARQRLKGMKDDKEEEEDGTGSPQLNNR", "experiment": "beta-arrestin/AP2 interaction blockers, potency – biochemical, cherry pick 1, beta2-adaptin appendage, flow cytometry, dose response (AID 588783)", "assay_type": "functional"}, "[1]": {"experiment": "NIH3T3 cell viability loss – ATP luminescence, mouse fibroblasts, counter-screen, dose response (AID 2010);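 further: cells exposed to compound for about 90 hours before reading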", "assay_type": "functional, cell-based"}, "[2]": {"experiment": "viability loss in THP-1 monocytes – THP-1 cells, cytotoxicity control for Vif-APOBEC3G degradation inhibitor project, dose response (AID 1117359)", "assay_type": "functional", "details": "THP-1"}, "Genome polyprotein": {"molecular_target": "Genome polyprotein (dengue virus type 2, UniProt P29990)", "experiment": "flavivirus cap methylation enzyme inhibition – biochemical, confirmation dose response, primary screen (AID 588689)", "assay_type": "functional"}, "[3]": {"test_system": "Streptococcus sp. 'group A'", "experiment": "Streptococcus pyogenes SK(-)GAS viability under kanamycin – luminescence, BacTiterGlo, confirmation, counter-screen for streptokinase expression inhibitor project, dose response (AID 1900)", "assay_type": "functional, organism-based"}, "[4]": {"molecular_target": "T1, Heat shock factor protein 1 (Mus musculus, UniProt P38532)", "T1 sequence (P38532 whole entry)": "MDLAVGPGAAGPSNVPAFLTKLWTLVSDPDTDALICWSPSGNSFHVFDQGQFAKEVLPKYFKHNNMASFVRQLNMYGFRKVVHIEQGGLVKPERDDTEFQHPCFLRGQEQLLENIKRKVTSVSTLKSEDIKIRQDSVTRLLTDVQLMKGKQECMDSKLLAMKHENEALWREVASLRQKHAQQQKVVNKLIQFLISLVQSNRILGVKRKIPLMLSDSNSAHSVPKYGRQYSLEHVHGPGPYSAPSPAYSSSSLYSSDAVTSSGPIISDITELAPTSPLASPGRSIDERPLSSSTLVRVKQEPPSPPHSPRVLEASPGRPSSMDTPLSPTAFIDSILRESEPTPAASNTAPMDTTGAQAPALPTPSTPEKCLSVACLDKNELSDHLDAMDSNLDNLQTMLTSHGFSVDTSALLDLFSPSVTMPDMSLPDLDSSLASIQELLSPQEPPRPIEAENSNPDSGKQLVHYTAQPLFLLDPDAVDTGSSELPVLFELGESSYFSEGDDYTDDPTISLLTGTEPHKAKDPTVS", "experiment": "decrease of HSF1-responsive luciferase luminescence – cell-based, NIH3T3, dose retest, confirmation (AID 2382);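 further: NIH3T3 fibroblasts with HSF1-driven luciferase reporter stressed by proteasome inhibitor MG132; luminescence from HSF1-driven luciferase expression after 8 hours of MG132 stress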", "assay_type": "functional"}, "[5]": {"experiment": "blockers of CAL PDZ ligand groove binding – biochemical, fluorescence polarization, untagged CAL PDZ, cherry-pick, dose response (AID 602267)", "assay_type": "functional"}, "[6]": {"molecular_target": "Cystic fibrosis transmembrane conductance regulator/Golgi-associated PDZ and coiled-coil motif-containing protein (Homo sapiens, UniProt P13569+Q9HD26)", "sequence (P13569 whole entry, other chains not shown)": "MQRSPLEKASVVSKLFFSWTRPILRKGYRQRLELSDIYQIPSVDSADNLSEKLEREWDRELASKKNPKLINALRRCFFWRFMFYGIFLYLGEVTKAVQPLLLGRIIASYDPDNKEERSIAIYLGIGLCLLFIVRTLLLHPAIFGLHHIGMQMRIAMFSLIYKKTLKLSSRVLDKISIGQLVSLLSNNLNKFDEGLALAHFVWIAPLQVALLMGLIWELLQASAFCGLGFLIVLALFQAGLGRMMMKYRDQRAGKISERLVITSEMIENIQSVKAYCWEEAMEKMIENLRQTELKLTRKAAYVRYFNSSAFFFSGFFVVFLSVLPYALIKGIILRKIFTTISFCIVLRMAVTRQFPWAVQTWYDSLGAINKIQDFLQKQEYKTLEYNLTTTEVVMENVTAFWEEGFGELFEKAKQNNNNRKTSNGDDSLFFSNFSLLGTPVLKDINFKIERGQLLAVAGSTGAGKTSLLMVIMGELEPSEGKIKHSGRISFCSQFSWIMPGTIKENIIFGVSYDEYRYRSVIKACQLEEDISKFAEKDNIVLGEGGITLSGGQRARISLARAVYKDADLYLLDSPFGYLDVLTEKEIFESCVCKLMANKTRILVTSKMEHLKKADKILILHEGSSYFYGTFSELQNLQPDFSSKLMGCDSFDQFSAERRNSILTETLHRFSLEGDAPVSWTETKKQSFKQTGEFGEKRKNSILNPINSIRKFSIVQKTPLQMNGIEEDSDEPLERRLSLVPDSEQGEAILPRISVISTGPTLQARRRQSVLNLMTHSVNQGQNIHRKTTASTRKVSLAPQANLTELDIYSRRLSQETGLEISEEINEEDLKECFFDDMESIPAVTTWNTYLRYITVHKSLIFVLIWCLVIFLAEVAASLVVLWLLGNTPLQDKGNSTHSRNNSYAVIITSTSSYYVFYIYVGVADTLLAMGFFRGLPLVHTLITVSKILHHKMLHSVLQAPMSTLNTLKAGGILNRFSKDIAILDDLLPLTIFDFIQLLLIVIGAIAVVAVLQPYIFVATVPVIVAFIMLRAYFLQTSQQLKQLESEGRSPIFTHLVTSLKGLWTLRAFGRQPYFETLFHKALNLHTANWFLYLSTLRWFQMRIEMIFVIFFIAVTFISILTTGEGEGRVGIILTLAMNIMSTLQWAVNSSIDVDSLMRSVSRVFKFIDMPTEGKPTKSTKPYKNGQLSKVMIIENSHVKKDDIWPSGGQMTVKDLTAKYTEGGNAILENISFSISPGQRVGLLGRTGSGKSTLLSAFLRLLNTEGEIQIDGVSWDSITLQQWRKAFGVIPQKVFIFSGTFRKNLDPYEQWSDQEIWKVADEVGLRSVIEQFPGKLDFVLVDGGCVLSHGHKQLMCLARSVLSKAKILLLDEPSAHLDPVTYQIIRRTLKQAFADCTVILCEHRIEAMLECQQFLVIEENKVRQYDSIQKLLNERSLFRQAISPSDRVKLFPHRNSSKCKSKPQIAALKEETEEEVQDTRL", "experiment": "potency against CAL PDZ-peptide interaction – biochemical, fluorescence polarization, Cerulean-tagged CAL PDZ, cherry-picks, dose response (AID 504773)"}, "[7]": {"molecular_target": "Histone-lysine N-methyltransferase NSD2 (Homo sapiens, UniProt O96028)", "sequence (O96028 whole entry)": "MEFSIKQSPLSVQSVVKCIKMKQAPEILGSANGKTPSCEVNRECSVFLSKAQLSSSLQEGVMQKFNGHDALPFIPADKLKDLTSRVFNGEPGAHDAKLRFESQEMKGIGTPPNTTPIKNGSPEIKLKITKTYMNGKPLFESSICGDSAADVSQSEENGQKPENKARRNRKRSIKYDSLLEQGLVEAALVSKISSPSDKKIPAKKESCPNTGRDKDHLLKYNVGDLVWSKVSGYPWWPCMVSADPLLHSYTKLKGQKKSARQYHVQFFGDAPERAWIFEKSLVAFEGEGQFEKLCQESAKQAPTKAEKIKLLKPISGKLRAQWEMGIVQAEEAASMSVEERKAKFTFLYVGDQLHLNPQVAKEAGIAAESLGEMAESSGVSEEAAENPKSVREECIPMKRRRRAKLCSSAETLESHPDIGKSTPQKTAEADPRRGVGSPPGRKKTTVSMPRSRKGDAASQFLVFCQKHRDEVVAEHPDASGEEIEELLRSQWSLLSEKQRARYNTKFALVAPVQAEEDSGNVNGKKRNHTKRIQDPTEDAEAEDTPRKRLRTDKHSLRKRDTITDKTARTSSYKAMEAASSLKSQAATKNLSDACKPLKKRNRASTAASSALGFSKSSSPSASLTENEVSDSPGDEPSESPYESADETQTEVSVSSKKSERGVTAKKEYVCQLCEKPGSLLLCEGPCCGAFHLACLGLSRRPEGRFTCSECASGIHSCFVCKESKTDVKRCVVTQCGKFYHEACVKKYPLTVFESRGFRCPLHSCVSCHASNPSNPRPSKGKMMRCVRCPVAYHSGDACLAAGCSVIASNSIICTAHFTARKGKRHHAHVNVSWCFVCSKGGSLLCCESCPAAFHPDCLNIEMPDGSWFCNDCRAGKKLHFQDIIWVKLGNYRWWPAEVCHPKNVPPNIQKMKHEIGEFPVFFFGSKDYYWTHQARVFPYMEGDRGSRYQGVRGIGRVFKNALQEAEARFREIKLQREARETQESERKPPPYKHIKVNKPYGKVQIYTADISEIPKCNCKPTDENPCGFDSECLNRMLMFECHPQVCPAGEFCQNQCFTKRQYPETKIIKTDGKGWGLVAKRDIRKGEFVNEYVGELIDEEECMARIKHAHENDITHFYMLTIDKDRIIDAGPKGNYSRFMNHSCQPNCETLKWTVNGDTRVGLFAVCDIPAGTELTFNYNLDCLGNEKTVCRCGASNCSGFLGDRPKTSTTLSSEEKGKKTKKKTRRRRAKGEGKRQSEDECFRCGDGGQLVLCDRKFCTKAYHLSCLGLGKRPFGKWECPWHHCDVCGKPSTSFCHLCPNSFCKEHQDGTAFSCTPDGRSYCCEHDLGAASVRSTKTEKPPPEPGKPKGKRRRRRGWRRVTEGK", "assay_type": "biochemical"}, "Keap1/Nrf2": {"molecular_target": "Keap1/Nrf2 (Homo sapiens, UniProt Q14145)", "sequence (Q16236 whole entry)": "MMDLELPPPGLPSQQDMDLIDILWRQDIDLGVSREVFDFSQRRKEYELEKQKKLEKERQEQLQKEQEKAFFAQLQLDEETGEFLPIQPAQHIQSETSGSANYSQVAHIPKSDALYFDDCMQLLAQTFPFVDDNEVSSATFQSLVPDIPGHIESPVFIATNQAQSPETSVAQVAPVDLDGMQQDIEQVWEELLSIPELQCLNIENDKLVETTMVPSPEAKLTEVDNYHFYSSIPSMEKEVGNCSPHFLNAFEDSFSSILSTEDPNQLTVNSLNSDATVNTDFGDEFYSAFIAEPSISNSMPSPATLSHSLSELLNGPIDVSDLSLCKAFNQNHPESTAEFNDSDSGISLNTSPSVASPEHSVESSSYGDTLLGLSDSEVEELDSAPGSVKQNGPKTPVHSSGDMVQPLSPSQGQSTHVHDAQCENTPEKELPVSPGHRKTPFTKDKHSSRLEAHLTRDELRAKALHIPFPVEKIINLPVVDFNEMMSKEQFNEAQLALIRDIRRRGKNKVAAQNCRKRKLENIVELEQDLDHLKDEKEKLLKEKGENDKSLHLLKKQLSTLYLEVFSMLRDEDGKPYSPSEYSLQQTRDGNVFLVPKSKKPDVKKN", "sequence (Q14145 whole entry)": "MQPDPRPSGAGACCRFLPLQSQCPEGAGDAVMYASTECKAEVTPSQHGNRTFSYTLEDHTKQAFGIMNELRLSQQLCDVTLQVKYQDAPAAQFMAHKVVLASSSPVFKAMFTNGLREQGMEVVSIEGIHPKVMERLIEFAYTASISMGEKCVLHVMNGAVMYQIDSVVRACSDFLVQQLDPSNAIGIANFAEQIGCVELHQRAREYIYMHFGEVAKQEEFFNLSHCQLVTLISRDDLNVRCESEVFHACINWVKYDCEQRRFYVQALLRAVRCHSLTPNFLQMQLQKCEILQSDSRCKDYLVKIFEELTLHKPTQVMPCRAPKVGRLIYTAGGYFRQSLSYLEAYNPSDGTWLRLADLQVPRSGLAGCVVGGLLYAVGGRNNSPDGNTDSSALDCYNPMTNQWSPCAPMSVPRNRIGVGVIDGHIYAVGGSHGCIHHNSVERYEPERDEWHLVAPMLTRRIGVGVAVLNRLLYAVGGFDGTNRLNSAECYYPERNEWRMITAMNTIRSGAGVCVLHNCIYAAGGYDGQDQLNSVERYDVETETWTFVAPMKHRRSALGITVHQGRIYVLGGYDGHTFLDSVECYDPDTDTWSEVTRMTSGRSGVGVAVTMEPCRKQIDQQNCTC", "experiment": "disruptors of Keap1 binding to Nrf2 peptide – biochemical, fluorescence polarization, cherry-picked samples, dose response (AID 588683)"}, "[8]": {"molecular_target": "T2, C-C chemokine receptor type 6 (Homo sapiens, UniProt P51684)", "T2 sequence (P51684 whole entry)": "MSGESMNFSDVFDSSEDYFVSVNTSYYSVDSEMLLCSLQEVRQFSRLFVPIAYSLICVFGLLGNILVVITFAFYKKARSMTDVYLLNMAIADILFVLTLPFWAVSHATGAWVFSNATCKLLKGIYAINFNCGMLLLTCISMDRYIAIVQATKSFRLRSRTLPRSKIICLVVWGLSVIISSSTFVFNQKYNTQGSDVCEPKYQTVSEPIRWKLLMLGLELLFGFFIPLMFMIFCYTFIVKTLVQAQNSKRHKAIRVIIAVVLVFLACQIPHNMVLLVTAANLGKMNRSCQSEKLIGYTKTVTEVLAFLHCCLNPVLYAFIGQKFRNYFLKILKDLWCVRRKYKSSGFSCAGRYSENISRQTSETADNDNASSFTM", "experiment": "antagonism of CCR6 beta-arrestin recruitment – cell-based, luminescent beta-arrestin readout, dose response (AID 504728)", "assay_type": "functional"}, "Nonstructural protein 1": {"molecular_target": "Nonstructural protein 1 (Influenza A virus, UniProt Q194T2)", "sequence (Q194T2 whole entry)": "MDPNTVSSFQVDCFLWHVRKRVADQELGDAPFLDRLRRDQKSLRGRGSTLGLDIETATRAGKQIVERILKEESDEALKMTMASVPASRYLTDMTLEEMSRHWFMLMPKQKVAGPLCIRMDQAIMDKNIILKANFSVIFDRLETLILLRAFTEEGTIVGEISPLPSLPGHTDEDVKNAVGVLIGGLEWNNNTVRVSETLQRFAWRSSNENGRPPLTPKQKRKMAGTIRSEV", "assay_type": "functional, Influenza A virus (A/California/07/2009(H1N1))"}, "[9]": {"molecular_target": "T3, Apoptotic protease-activating factor 1 (Homo sapiens, UniProt O14727)", "T3 sequence (O14727 whole entry)": "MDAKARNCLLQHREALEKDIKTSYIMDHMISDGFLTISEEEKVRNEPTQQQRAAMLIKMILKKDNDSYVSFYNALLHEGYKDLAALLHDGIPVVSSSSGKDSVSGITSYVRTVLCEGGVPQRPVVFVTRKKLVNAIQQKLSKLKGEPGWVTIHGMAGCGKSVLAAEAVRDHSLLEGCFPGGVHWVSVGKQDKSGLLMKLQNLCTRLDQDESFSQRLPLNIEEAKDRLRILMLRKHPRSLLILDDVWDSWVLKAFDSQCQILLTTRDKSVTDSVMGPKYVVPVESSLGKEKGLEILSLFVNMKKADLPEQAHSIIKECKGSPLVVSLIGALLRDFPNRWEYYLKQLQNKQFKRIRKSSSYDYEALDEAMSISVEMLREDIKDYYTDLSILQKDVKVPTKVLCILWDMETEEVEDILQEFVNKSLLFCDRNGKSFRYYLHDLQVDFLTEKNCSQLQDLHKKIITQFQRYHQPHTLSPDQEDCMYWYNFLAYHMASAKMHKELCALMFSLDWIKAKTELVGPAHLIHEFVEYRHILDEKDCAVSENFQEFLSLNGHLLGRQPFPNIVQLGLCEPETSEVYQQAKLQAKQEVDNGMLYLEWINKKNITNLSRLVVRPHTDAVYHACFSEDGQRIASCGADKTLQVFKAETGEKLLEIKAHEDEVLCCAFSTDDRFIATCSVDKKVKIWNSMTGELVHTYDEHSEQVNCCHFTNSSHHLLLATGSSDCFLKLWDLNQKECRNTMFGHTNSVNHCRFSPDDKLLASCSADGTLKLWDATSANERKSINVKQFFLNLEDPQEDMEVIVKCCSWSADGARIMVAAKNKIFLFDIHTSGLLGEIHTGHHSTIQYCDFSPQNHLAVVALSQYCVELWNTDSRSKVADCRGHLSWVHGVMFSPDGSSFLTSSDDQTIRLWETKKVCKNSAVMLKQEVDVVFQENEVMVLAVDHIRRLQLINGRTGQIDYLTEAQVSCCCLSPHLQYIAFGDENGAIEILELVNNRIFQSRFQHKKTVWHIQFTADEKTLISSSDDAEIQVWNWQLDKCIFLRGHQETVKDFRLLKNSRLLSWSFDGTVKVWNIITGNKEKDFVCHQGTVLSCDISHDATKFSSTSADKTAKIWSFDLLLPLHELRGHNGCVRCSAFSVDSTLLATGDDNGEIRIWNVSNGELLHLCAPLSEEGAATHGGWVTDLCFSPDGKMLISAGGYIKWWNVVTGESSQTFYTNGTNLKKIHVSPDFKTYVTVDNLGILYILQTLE", "assay_type": "functional"}},
  "note": "Calls of active or inactive are those of the source.",
  "data": [
    {"smiles": "NC(=O)C1CCN(C2=C(Cl)C(=O)c3ccccc3C2=O)CC1", "values": [
      {"measurement": "IC50", "setting": "Beta-arrestin-1", "result": "22.2 µM (inactive)"},
      {"measurement": "EC50", "setting": "[1]", "result": "3.29 µM (active)"},
      {"measurement": "CC50", "setting": "[2]", "result": "9.71 µM (active)"},
      {"measurement": "IC50", "setting": "Genome polyprotein", "result": "26 µM (active)"}
    ]},
    {"smiles": "O=C(O)c1ccc(N/N=C/c2ccc(OC(=O)c3ccccc3Cl)cc2)cc1", "values": [
      {"measurement": "EC50", "setting": "[3]", "result": "2.91 µM (active)"},
      {"measurement": "EC50", "setting": "[4]", "result": "167 nM (active)"}
    ]},
    {"smiles": "O=c1c2ccccc2nc(/C=C/c2cccnc2)n1Cc1ccccc1", "values": [
      {"measurement": "AC50", "setting": "[5]", "result": "91.1 µM (active)"},
      {"measurement": "AC50", "setting": "[6]", "result": "23.5 µM (active)"}
    ]},
    {"smiles": "COC(=O)c1ccccc1NC1=C/C(=N\\S(=O)(=O)c2ccc(C(=O)O)cc2)c2ccccc2C1=O", "values": [
      {"measurement": "AC50", "setting": "[7]", "result": "557 nM (active)"},
      {"measurement": "AC50", "setting": "Keap1/Nrf2", "result": "> 52 µM (inactive)"},
      {"measurement": "IC50", "setting": "[8]", "result": "> 66.6 µM (inactive)"},
      {"measurement": "IC50", "setting": "Nonstructural protein 1", "result": "31.8 µM (active)"},
      {"measurement": "IC50", "setting": "[9]", "result": "7.19 µM (active)"}
    ]}
  ]
}
